# What was measured:
# Assay type in all cases: in vivo
# day-old broiler chicks = experiment: Determination of dose range: maximum tolerated oral dose in day-old broiler chicks
# Method: (§1) Day-old chicks were orally administered Iksin in DMSO at 100 μg/g, 125 μg/g, 150 μg/g and 200 μg/g body weight and in Distilled Water (DW)/5% Tween-20 at 100 μg/g, 200 μg/g, 400 μg/g and 500 μg/g body weight.
# The maximum tolerated oral dose of Iksin for day-old broiler chicks was 200 μg/g Iksin/DMSO and ≧500 μg/g in DW/T20.
# [1] = Plasma/blood levels of Iksin in chicks after a single oral dose; settings: for peak levels (blood/plasma): observed at 48 h (FIG. 1)
# Method: FIG. 1 is a graph showing plasma levels of Iksin in chicks after treatment with Iksin at 100 μg/g in DMSO and at 400 μg/g in distilled water/Tween20; and
# as §1
# chicks = experiment: Effect on chick growth: weight gain after a single treatment
# Method: FIG. 2 is a graph showing the average percentage weight increase in chicks after single dosing with Iksin at 12 μg/g in DMSO, 100 μg/g in DMSO, 200 μg/g in distilled water/Tween20 and 400 μg/g in distilled water/tween20 compared to untreated chicks.
# as §1
# Treatment with Iksin 12 μg/g DMSO, 200 and 400 μg/g DW/T20 gave a mean weight gain of 17%.
structure (smiles),measurement,setting,value
"C/C(=C\c1ccc2c(c1)OCO2)[N+](=O)[O-] [Iksin, 3,4-methylenedioxy-β-methyl-β-nitrostyrene]",maximum tolerated oral dose,day-old broiler chicks; Iksin in DMSO,200 µg/g
same,maximum tolerated oral dose,day-old broiler chicks; Iksin in DW/T20 (distilled water/5% Tween-20),≥ 500 µg/g
same,Iksin blood levels,[1]; single oral dose 12 μg/g DMSO,below the limits of detection
same,peak levels (blood/plasma),[1]; single oral dose 100 μg/g DMSO,850 µg/g
same,Iksin blood levels,[1]; single oral dose 200 μg/g DW,below the limits of detection
same,peak levels (blood/plasma),[1]; single oral dose 400 μg/g DW,850 µg/g
same,absorption from a single oral dosing,[1]; single oral dosing,Very little Iksin was absorbed
same,weight gain in chicks,"chicks; all doses and formulations, 4 days after a single treatment (FIG. 2)",increased weight gain
same,mean weight gain,"chicks; chicks, Iksin 12 μg/g DMSO, 200 and 400 μg/g DW/T20 (mean of these groups), 4 days after a single treatment",17%
same,increase in weight gain over the group of control chicks,"chicks; chicks, Iksin 100 μg/g DMSO, 4 days after a single treatment",32%

# Reference: patent US20060100258A1, “Growth promotion method” (priority 2003, published 2006)
